Test results from ChEMBL document CHEMBL1201862, “PubChem BioAssay data set” (2004).
Activity calls are given as the source filed them.

What was measured:
Caspase-6 = molecular target: T1, Caspase-6 (Homo sapiens, UniProt P55212); experiment: human caspase-6 inhibitors, dose response, biochemical, VEID-R110 fluorescence, cherry-pick (AID 720632)
T1 sequence (P55212 whole entry): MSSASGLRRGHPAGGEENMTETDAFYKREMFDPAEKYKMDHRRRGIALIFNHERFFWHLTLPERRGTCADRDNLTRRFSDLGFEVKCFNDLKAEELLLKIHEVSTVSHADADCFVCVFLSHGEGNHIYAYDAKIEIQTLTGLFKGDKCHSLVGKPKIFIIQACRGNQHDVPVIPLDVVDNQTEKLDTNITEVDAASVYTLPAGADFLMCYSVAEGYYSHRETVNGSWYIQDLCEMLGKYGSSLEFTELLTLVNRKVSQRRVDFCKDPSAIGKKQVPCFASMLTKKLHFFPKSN

[1] = A cytotoxicity screen of small molecule inhibitors of the PhoP region in Salmonella typhi identified in the primary screen. [Related pubchem assays: 1850, 1864, 1985 ]; format: functional
Coagulation factor XII = molecular target: T2, Coagulation factor XII (Homo sapiens, UniProt P00748); format: functional;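 further: activated factor XIIa alpha cleaving a fluorogenic AMC peptide substrate; inhibitor potency from loss of enzyme activity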
T2 sequence (P00748 whole entry): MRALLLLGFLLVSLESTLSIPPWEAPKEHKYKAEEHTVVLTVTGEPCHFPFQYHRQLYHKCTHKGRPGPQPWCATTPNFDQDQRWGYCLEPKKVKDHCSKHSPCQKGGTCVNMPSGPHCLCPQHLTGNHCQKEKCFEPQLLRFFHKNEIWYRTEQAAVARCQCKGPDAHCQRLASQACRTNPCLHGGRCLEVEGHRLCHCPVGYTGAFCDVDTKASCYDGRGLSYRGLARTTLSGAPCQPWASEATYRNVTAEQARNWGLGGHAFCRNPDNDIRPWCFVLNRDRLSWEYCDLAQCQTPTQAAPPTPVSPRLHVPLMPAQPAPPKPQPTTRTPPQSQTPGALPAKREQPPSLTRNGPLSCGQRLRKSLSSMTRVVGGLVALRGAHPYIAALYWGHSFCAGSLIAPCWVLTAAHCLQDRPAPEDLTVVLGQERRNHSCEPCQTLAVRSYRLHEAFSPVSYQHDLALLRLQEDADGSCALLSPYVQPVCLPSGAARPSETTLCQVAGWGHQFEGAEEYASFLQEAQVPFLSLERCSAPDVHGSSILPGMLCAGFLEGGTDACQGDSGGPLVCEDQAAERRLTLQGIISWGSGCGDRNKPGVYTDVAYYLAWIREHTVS

Caspase-3 = molecular target: T3, Caspase-3 (Homo sapiens, UniProt P42574); format: functional;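 further: Dose-response selectivity test against caspase-3 for candidate inhibitors of sentrin-specific proteases (SENPs)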
T3 sequence (P42574 whole entry): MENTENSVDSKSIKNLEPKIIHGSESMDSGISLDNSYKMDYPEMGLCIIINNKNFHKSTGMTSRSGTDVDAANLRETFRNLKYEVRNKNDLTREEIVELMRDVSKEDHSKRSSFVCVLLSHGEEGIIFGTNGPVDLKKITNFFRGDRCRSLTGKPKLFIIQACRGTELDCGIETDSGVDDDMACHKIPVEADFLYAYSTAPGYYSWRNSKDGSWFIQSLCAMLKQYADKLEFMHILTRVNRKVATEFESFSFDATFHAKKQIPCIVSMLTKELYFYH

[2] = molecular target: T4, Sentrin-specific protease 8 (Homo sapiens, UniProt Q96LD8); format: functional;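 further: luminescence read-out of SENP8 inhibition, dose-response confirmation following an ultra-high-throughput screen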
T4 sequence (Q96LD8 whole entry): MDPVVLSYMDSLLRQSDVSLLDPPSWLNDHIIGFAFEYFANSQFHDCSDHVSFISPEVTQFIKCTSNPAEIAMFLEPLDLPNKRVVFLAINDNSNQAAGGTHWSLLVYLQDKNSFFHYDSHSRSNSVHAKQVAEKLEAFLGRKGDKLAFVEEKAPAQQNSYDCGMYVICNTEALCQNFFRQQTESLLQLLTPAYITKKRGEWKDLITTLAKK

[3] = molecular target: T5, Sentrin-specific protease 7 (Homo sapiens, UniProt Q9BQF6); format: functional;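 further: Luminescence-based dose-response confirmation of ultra-high-throughput screening hits, measuring inhibition of SENP7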
T5 sequence (Q9BQF6 whole entry): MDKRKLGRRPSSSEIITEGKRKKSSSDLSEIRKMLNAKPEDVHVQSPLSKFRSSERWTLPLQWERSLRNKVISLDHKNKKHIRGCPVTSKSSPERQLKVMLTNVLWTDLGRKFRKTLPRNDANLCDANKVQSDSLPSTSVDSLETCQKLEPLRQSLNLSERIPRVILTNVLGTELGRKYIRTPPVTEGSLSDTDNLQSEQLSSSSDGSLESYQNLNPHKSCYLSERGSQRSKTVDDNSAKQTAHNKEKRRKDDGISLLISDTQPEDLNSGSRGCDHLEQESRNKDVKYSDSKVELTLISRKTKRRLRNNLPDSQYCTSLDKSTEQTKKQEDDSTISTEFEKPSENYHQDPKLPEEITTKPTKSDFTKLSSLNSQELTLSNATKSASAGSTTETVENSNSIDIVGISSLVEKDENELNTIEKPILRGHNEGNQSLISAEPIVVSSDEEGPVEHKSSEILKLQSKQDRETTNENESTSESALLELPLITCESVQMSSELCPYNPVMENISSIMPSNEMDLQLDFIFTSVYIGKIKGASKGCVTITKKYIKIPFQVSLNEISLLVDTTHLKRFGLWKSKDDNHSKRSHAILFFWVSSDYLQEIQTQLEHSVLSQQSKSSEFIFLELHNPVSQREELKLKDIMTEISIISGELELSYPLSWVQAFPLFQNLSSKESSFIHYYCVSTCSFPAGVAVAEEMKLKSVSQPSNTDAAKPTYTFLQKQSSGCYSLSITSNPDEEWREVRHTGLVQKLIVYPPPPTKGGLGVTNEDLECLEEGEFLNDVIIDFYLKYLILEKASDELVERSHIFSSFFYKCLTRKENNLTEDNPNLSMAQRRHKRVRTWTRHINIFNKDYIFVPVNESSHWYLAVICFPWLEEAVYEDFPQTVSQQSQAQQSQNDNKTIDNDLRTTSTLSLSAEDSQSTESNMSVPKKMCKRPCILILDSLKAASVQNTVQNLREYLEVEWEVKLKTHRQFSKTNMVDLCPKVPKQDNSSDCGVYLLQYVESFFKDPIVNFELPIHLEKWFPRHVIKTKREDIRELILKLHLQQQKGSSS

[4] = molecular target: T6, Sentrin-specific protease 6 (Homo sapiens, UniProt Q9GZR1); format: functional;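 further: Luminescence-based dose-response confirmatory assay of SENP6 inhibition, following up an ultra-high-throughput screen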
T6 sequence (Q9GZR1 whole entry): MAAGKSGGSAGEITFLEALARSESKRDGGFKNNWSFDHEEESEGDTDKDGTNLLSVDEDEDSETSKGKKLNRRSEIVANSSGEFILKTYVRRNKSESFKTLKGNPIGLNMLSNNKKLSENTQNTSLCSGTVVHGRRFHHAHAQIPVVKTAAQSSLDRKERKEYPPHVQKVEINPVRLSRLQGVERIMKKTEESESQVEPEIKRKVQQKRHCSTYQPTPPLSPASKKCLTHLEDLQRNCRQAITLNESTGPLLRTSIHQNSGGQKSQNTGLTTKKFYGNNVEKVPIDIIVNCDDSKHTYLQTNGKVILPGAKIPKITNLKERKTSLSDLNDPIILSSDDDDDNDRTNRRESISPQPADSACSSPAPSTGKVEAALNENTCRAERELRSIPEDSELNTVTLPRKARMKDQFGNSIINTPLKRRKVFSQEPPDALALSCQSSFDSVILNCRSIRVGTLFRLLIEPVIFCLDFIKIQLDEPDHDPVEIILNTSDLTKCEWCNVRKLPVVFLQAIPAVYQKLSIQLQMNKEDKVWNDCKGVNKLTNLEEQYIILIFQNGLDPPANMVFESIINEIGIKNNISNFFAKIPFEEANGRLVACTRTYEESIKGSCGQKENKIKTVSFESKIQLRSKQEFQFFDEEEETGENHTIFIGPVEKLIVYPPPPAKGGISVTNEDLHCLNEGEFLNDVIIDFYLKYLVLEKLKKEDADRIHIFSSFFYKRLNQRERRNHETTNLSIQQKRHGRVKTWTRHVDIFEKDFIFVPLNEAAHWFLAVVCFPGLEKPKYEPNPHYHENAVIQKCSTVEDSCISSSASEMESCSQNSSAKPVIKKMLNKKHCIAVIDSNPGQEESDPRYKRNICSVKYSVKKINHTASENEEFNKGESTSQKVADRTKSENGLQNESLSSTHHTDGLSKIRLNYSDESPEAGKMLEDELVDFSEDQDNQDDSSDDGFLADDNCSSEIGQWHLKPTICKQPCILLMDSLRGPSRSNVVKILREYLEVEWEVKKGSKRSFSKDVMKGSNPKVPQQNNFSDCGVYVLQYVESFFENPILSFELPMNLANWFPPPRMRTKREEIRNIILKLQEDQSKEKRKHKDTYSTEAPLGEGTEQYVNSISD

[5] = cytotoxicity toward NIH3T3 fibroblasts, dose response, counter-screen, cell-based, ATP luminescence, mouse fibroblasts (AID 2010); format: functional;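 further: cells exposed to compound for about 90 hours before reading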
[6] = HEp-2 cell cytotoxicity, dose response, cytotoxicity control for RSV inhibitor project, HTS (AID 2410); format: functional; details: human respiratory syncytial virus
[7] = inhibitors of intracellular T. cruzi replication, confirmation, NIH3T3 host cells, beta-gal luminescence (AID 2044); format: functional, cell-based;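 further: intracellular parasites grown in NIH/3T3 mouse fibroblasts as host cells; luminescent beta-galactosidase reporter signal from transgenic T. cruzi replicating inside host cells; inhibitors lower the luminescence signal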
[8] = THP-1 cell cytotoxicity, dose response, cytotoxicity control for Vif-APOBEC3G degradation inhibitor project, THP-1 cells (AID 1117359); format: functional; details: Human immunodeficiency virus 1, THP-1
Cytochrome P450 2D6 = Cytochrome P450 2D6 (Homo sapiens, UniProt P10635);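 further: CYP2D6 member of a cytochrome P450 panel assay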
[9] = inhibitors of HIV Env-driven cell fusion, dose response, cherry-pick (AID 652057); format: functional, cell-based
[10] = inhibitors of clade B AD8 Env fusion, dose response, cell-based, cherry-pick (AID 652062); format: functional;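 further: luciferase signal from cell-cell fusion driven by HIV-1 clade B AD8 Env; potency is for inhibitors of fusion seen as a drop in luminescence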
[11] = off-target signal loss in HeLa-CEM21 co-culture – HeLa F-luc CTL cells, cherry-picked, counter-screen for HIV-1 Env fusion inhibitor project, dose response (AID 652040); format: functional, cell-based;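 further: potency for signal decrease marking cytotoxic or nonspecific inhibition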
[12] = ZM109 Env clade C HIV-1 fusion inhibitors, dose response, HeLa effector, CEM target cells, luciferase, cherry-pick (AID 652058); format: functional, cell-based
[13] = non-specific cell cytotoxicity, dose response, cytotoxicity control for PAX8 inhibitor project, plate reader, dry powder samples (AID 743021); format: functional, cell-based
[14] = NIH:OVCAR-3 ovarian cancer cell cytotoxicity, dose response, PAX8 inhibitor project, plate reader, dry powder samples (AID 743044); format: functional, cell-based
[15] = cytotoxicity in OVCAR8 ovarian cancer cells, dose response, PAX8 project, cell-based, plate reader, dry powder samples (AID 743197); format: functional; details: OVCAR-8
Paired box protein Pax-8 = Paired box protein Pax-8 (Homo sapiens, UniProt Q06710); experiment: inhibitors of PAX8-driven TPO luciferase reporter, dose response, RMG-I cells, cherry-pick (AID 687027); format: functional, cell-based;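 further: luciferase reporter driven by Pax8 target thyroperoxidase promoter measured by SteadyGlo luminescence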
Chain of Paired box protein Pax-8 (Q06710 whole entry): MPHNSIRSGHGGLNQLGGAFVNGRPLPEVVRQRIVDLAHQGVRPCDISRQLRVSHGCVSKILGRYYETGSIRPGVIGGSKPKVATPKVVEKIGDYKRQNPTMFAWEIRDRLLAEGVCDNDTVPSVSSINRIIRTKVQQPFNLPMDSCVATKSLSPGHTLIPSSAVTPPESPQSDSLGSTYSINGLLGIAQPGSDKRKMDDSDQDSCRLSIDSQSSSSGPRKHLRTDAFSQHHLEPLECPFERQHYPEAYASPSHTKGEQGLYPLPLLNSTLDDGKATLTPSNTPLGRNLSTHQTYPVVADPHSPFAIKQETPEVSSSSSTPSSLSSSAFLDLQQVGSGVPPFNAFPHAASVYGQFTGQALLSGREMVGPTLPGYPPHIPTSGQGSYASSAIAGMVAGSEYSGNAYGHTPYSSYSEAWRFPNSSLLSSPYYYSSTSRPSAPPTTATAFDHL

Chain of Cytochrome P450 2D6 (P10635 whole entry, the tested form may be a part): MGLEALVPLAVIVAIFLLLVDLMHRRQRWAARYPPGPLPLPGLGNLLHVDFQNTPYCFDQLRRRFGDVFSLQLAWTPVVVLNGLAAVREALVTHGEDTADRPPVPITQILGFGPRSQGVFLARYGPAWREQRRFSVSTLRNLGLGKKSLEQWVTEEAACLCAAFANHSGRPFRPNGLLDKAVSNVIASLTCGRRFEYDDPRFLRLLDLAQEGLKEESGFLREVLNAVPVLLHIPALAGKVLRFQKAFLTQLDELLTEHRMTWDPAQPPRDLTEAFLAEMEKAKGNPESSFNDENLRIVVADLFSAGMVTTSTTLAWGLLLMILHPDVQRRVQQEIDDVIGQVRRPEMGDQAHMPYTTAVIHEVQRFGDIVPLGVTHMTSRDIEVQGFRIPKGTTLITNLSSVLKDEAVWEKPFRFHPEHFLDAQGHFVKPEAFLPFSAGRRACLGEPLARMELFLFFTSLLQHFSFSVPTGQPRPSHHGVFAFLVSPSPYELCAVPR

O=C(O)c1c2c(nc3ccc(Cl)cc13)CCC2
AC50 (Caspase-6): 28.8 µM (active)

COCC1CCCN(Cc2c[nH]nc2-c2cc3ccccc3o2)C1 (configuration not stated)
EC50 [1]: > 50 µM (active)

COc1ccc(-c2cc(-c3nnc(COC(=O)CC4CC5CCC4C5)o3)c3ccccc3n2)cc1OC (configuration not stated)
IC50 (Coagulation factor XII): > 50 µM (inactive)

COC(=O)c1ccccc1NC(=O)Nc1cc(C)ccn1
IC50 (Coagulation factor XII): > 50 µM (inactive)

CCn1nnnc1SCC(=O)c1cc(Cl)ccc1OC
EC50 [1]: > 50 µM (active)

Cc1ccnc(Nc2nc(-c3ccccc3)cs2)c1
IC50 (Caspase-3): 13.1 µM (active)
IC50 [2]: 3.93 µM (active)
IC50 [3]: 1.78 µM (active)
IC50 [4]: 7.16 µM (active)

O=C(COC(=O)c1cccc(NC(=O)c2ccco2)c1)c1ccc(Br)cc1
IC50 (Caspase-3): 32.2 µM (active)
IC50 [2]: 8.37 µM (active)
IC50 [3]: 6.05 µM (active)
IC50 [4]: 9.01 µM (active)

O=C(Nc1ccc2[nH]c(-c3ccc(Br)o3)nc2c1)c1cccs1
EC50 [5]: > 60 µM (not active)
CC50 [6]: 24 µM (active)
EC50 [7]: 3.18 µM (active)
EC50 [1]: > 50 µM (active)

Cc1ccc(S(=O)(=O)N(CC(=O)NCCC2=CCCCC2)Cc2ccccc2F)cc1
CC50 [8]: > 40 µM (active)
AC50 (Cytochrome P450 2D6): 20 µM (inconclusive)

Cc1c(C=O)c2ccccn2c1C(=O)c1ccccc1
EC50 [1]: > 50 µM (active)

CCC(=O)OCCn1c(=O)c2cc3c(=O)n(CCOC(=O)CC)c(=O)c3cc2c1=O
IC50 (Coagulation factor XII): > 50 µM (inactive)

O=c1c(-c2cc(O)[nH]n2)c(O)c2ccccc2n1Cc1ccccc1
AC50 (Caspase-6): 19.7 µM (active)

CSCCC(NS(=O)(=O)c1ccc2c(c1)oc(=O)n2C)C(=O)NC1CCCc2ccccc21 (configuration not stated)
AC50 [9]: 4.21 µM (active)
AC50 [10]: 8.37 µM (active)
AC50 [11]: 7.6 µM (active)
AC50 [12]: 3.16 µM (active)

O=C(OCC(=O)N1CCCc2ccccc21)c1ccc(Cl)nc1
IC50 (Coagulation factor XII): > 50 µM (inactive)

O=C1Cc2ccccc2C(=O)N1Nc1ccccc1
AC50 (Caspase-6): 51.5 µM (active)

O=C(C[C@@H]1C[C@@H]2c3cc(NS(=O)(=O)c4ccc(F)cc4)ccc3O[C@@H]2[C@@H](CO)O1)NCc1ccc(Oc2ccccc2)cc1
AC50 [13]: 27.8 µM (active)
AC50 [14]: 22.1 µM (active)
AC50 [15]: 17.9 µM (active)
AC50 (Paired box protein Pax-8): 6.15 µM (active)

CCc1ccc([C@H]2[C@@H]3C(=O)C[C@@H]4C(=O)N(C5CCCCC5)C(=O)[C@@H]4[C@@H]3CN2S(=O)(=O)c2ccc(C)cc2)cc1
AC50 [9]: 1.09 µM (active)
AC50 [10]: 2.15 µM (active)
AC50 [11]: 2.53 µM (active)
AC50 [12]: 1.99 µM (active)

Cc1ccc(NC(=O)/C(CN(C)C)=N\O)cc1
IC50 (Coagulation factor XII): > 50 µM (inactive)
